ChEMBL document CHEMBL3045375, “Synthesis, characterization and biological activity of some new carbostyril bearing 1H-pyrazole moiety” (2012)
≈ marks a conversion by molar mass, not a printed value.

Legend:
Type in all cases: functional
Bacillus subtilis = assay: Antibacterial activity against Bacillus subtilis MTCC 441 after 24 hr by broth microdilution method
Candida albicans = assay: Antifungal activity against Candida albicans MTCC 227 after 48 hr by broth microdilution method
Streptococcus pneumoniae = assay: Antibacterial activity against Streptococcus pneumoniae MTCC 1936 after 24 hr by broth microdilution method; conditions: MTCC 1936, 24 h
Aspergillus fumigatus = assay: Antifungal activity against Aspergillus fumigatus MTCC 3008 after 48 hr by broth microdilution method
Escherichia coli = assay: Antibacterial activity against Escherichia coli MTCC 443 after 24 hr by broth microdilution method; conditions: MTCC 443, 24 h

Compound | MIC (Bacillus subtilis; MTCC 441, 24 h) [µg/mL] | MIC (Candida albicans; MTCC 227, 48 h) [µg/mL] | MIC (Streptococcus pneumoniae) [µg/mL] | MIC (Aspergillus fumigatus; MTCC 3008, 48 h) [µg/mL] | MIC (Escherichia coli) [µg/mL] | MIC (Candida albicans) [µg/mL] | MIC (Aspergillus fumigatus) [µg/mL] | MIC (Bacillus subtilis) [µg/mL]
CC1(C)CC(=O)C2=C(C1)N(c1ccc(F)cc1)C(=O)CC2c1cn(-c2ccccc2)nc1-c1ccc(Cl)cc1 (centres undefined) | 0.15 (≈ 0.278 µM) | 1000 (≈ 1850 µM) | 250 (≈ 463 µM) | 500 (≈ 926 µM) | 50 (≈ 92.6 µM) | – | – | –
O=C1CCCC2=C1C(c1cn(-c3ccccc3)nc1-c1ccc(F)cc1)CC(=O)N2c1ccc(F)cc1 (centres undefined) | 0.1 (≈ 0.202 µM) | 500 (≈ 1010 µM) | 200 (≈ 404 µM) | 1000 (≈ 2020 µM) | 250 (≈ 505 µM) | – | – | –
Cc1ccc(-c2nn(-c3ccccc3)cc2C2CC(=O)N(c3ccc(F)cc3)C3=C2C(=O)CC(C)(C)C3)cc1 (centres undefined) | 0.5 (≈ 0.962 µM) | 500 (≈ 962 µM) | 100 (≈ 192 µM) | 500 (≈ 962 µM) | 500 (≈ 962 µM) | – | – | –
COc1ccc(-c2nn(-c3ccccc3)cc2C2CC(=O)N(c3ccc(F)cc3)C3=C2C(=O)CCC3)cc1 (centres undefined) | 0.5 (≈ 0.985 µM) | 1000 (≈ 1970 µM) | 250 (≈ 493 µM) | 500 (≈ 985 µM) | 100 (≈ 197 µM) | – | – | –
CC1(C)CC(=O)C2=C(C1)N(c1ccc(F)cc1)C(=O)CC2c1cn(-c2ccccc2)nc1-c1cccs1 (centres undefined) | 0.25 (≈ 0.489 µM) | 500 (≈ 977 µM) | 500 (≈ 977 µM) | 1000 (≈ 1950 µM) | 200 (≈ 391 µM) | – | – | –
CC1(C)CC(=O)C2=C(C1)N(c1ccc(F)cc1)C(=O)CC2c1cn(-c2ccccc2)nc1-c1ccccc1 (centres undefined) | 0.2 (≈ 0.396 µM) | 500 (≈ 989 µM) | 150 (≈ 297 µM) | 500 (≈ 989 µM) | 500 (≈ 989 µM) | – | – | –
NYSTATIN | – | – | – | – | – | 100 | 100 | –
CC1(C)CC(=O)C2=C(C1)N(c1ccc(F)cc1)C(=O)CC2c1cn(-c2ccccc2)nc1-c1ccc(F)cc1 (centres undefined) | 0.5 (≈ 0.955 µM) | 500 (≈ 955 µM) | 500 (≈ 955 µM) | 1000 (≈ 1910 µM) | 150 (≈ 286 µM) | – | – | –
CC1(C)S[C@@H]2[C@H](NC(=O)[C@H](N)c3ccccc3)C(=O)N2[C@H]1C(=O)O [AMPICILLIN] | 0.25 (≈ 0.715 µM) | – | 100 (≈ 286 µM) | – | 100 (≈ 286 µM) | – | – | –
O=C(N[C@H](CO)[C@H](O)c1ccc([N+](=O)[O-])cc1)C(Cl)Cl [CHLORAMPHENICOL] | 0.05 (≈ 0.155 µM) | – | 50 (≈ 155 µM) | – | 50 (≈ 155 µM) | – | – | –
O=C1CCCC2=C1C(c1cn(-c3ccccc3)nc1-c1ccc(Br)cc1)CC(=O)N2c1ccc(F)cc1 (centres undefined) | 0.5 (≈ 0.899 µM) | 500 (≈ 899 µM) | 250 (≈ 449 µM) | > 1000 | 62.5 (≈ 112 µM) | – | – | –
GENTAMICIN | – | – | – | – | – | – | – | 0.001
Cc1ccc(-c2nn(-c3ccccc3)cc2C2CC(=O)N(c3ccc(F)cc3)C3=C2C(=O)CCC3)cc1 (centres undefined) | 0.25 (≈ 0.509 µM) | 1000 (≈ 2030 µM) | 100 (≈ 203 µM) | 500 (≈ 1020 µM) | 250 (≈ 509 µM) | – | – | –
CC1(C)CC(=O)C2=C(C1)N(c1ccc(F)cc1)C(=O)CC2c1cn(-c2ccccc2)nc1-c1ccc(Br)cc1 (centres undefined) | 0.5 (≈ 0.855 µM) | 100 (≈ 171 µM) | 250 (≈ 428 µM) | 100 (≈ 171 µM) | 500 (≈ 855 µM) | – | – | –
CC1(C)CC(=O)C2=C(C1)N(c1ccc(F)cc1)C(=O)CC2c1cn(-c2ccccc2)nc1-c1ccc([N+](=O)[O-])cc1 (centres undefined) | 0.25 (≈ 0.454 µM) | 1000 (≈ 1820 µM) | 250 (≈ 454 µM) | 1000 (≈ 1820 µM) | 100 (≈ 182 µM) | – | – | –
O=C1CCCC2=C1C(c1cn(-c3ccccc3)nc1-c1ccc([N+](=O)[O-])cc1)CC(=O)N2c1ccc(F)cc1 (centres undefined) | 0.2 (≈ 0.383 µM) | 500 (≈ 957 µM) | 100 (≈ 191 µM) | 1000 (≈ 1910 µM) | 62.5 (≈ 120 µM) | – | – | –
O=C1CCCC2=C1C(c1cn(-c3ccccc3)nc1-c1cccs1)CC(=O)N2c1ccc(F)cc1 (centres undefined) | 0.25 (≈ 0.517 µM) | 500 (≈ 1030 µM) | 200 (≈ 414 µM) | 1000 (≈ 2070 µM) | 100 (≈ 207 µM) | – | – | –
COc1ccc(-c2nn(-c3ccccc3)cc2C2CC(=O)N(c3ccc(F)cc3)C3=C2C(=O)CC(C)(C)C3)cc1 (centres undefined) | 0.2 (≈ 0.373 µM) | 1000 (≈ 1870 µM) | 100 (≈ 187 µM) | 1000 (≈ 1870 µM) | 250 (≈ 467 µM) | – | – | –
COC1=CC(=O)C[C@@H](C)[C@]12Oc1c(Cl)c(OC)cc(OC)c1C2=O [GRISEOFULVIN] | – | 500 (≈ 1420 µM) | – | 100 (≈ 283 µM) | – | – | – | –
O=C1CCCC2=C1C(c1cn(-c3ccccc3)nc1-c1ccccc1)CC(=O)N2c1ccc(F)cc1 (centres undefined) | 0.5 (≈ 1.05 µM) | > 1000 | 500 (≈ 1050 µM) | > 1000 | 500 (≈ 1050 µM) | – | – | –
O=C(O)c1cn(C2CC2)c2cc(N3CCNCC3)c(F)cc2c1=O [CIPROFLOXACIN] | 0.05 (≈ 0.151 µM) | – | 50 (≈ 151 µM) | – | 25 (≈ 75.4 µM) | – | – | –
O=C1CCCC2=C1C(c1cn(-c3ccccc3)nc1-c1ccc(Cl)cc1)CC(=O)N2c1ccc(F)cc1 (centres undefined) | 0.25 (≈ 0.488 µM) | 500 (≈ 977 µM) | 250 (≈ 488 µM) | > 1000 | 100 (≈ 195 µM) | – | – | –
